The record followed here is US8703825B2, “Compounds, use thereof as medicaments, and method of preparation thereof” (Universite de Lorraine, priority 2008, dated 2014).

What all share (format): cell-based
Experiment [1] concerns Escherichia coli ATCC 25922. Put plainly: MIC by microdilution in liquid medium (CLSI / CA-SFM). The source says:
(§1) According to the joint recommendations: • of the “Comite de l′Antibiogramme de la Société Française de Microbiologie” (Antibiogram Committee of the French Society of Microbiology) (CA-SFM) [CA-SFM. Communique 2007 (Edition of January 2007). http://www.sfm.asso.fr] and, • of the “Clinical and Laboratory Standards Institute” (CLSI, formerly “National Committee for Clinical Laboratory Standards” or NCCLS) [NCCLS. 2003. Methods for dilution antimicrobial susceptibility tests for bacteria that grow aerobically; approved standard M7-A6, 6th ed. National Committee for Clinical Laboratory Standards, Wayne, Pa., USA.], five reference bacterial strains were used for the study: Escherichia coli ATCC 25922, Pseudomonas aeruginosa ATCC 27853, Staphylococcus aureus ATCC 25923 & ATCC 29213 and Enterococcus faecalis ATCC 29212.
(§2) The bacteria are cultivated either on Mueller-Hinton agar (Difco, 225250), or in Mueller-Hinton broth (Difco, 275730), at 35° C. [Grare M, Mourer M, Fontanay S, Regnouf-de-Vains J B, Finance C, Duval R E. In vitro activity of para-guanidinoethylcalix[4]arene against susceptible and antibiotic-resistant Gram-negative and Gram-positive bacteria. J. Antimicrob Chemother. 2007; 60: 575-81].
(§3) The various molecules tested were prepared in the form of aqueous solution at 10^−2 mol/L. The solutions used for the biological tests are freshly prepared, and stored for a week at most, at 4° C. The solutions are filtered through a filter with pores of 0.22 μm (Millex®GP; 0.22 μm; Millipore; France) before each test.
(§4) Procedure for determining the Minimum Inhibitory Concentration (MIC)
(§5) The minimum inhibitory concentrations (MIC) were determined by the standardized method of microdilution in liquid medium (96-well microplate, U-shaped bottom, Greiner), in Mueller-Hinton broth, with a final inoculum of 10^5-10^6 CFU/mL, depending on the bacterial species, in accordance with the recommendations of the CLSI.
(§6) For the determination of MIC, bacterial suspensions are prepared from an isolated colony, taken from a Mueller-Hinton agar, taken up in 5 mL of Mueller-Hinton broth. After 24 h of growth, the bacterial suspensions are diluted in sterile distilled water in order to obtain an inoculum of 10^5-10^6 CFU/mL. The purity of the bacterial suspensions is tested by isolation on agar and Gram staining.
(§7) The results are the mean value of 4 independent experiments.

Experiment [2] deals with Staphylococcus aureus ATCC 25923. Described as above.
Source text: as §1, §2, §3, §4, §5, §6, §7

Experiment [3] deals with Staphylococcus aureus ATCC 29213. The description is as above. The following applies: Staphylococcus aureus, ATCC29213, S. aureus ATCC 29213, reference strain; read-out: MIC.
Source text: as §1, §2, §3, §4, §5, §6, §7

Experiment [4] relates to Enterococcus faecalis ATCC 29212. Described as above. The note with it: ATCC29212, E. faecalis ATCC 29212, reference strain, read-out: MIC.
Source text: as §1, §2, §3, §4, §5, §6, §7

In experiment [5] the test system is Pseudomonas aeruginosa ATCC 27853. The experiment is described as above. The note with it: ATCC27853, P. aeruginosa ATCC 27853, reference strain, read-out: MIC.
Source text: as §1, §2, §3, §4, §5, §6, §7

Experiment [6] has as its system Gram-positive and Gram-negative bacteria (reference strains and clinical isolates). In words: Antibacterial activity overall (MIC determination). The following applies: summary of MIC results.
Source text: as §1
The study also included 5 clinical isolates, obtained from rectal samples and/or from haemoculture: • […] E. coli (EcR1), • methicillin-resistant S. aureus (mecA gene) (SaR1), • vancomycin-resistant E. faecium (vanB gene) (EfR1), • E. faecalis resistant to teicoplanin and to vancomycin (vanA gene) (EfR2), and • P. aeruginosa overexpressing an efflux pump (PaRl).
as §4, §5, §6, §7

The mark [7] stands for this setting: Escherichia coli, ATCC25922, E. coli ATCC 25922, reference strain, read-out: MIC.
[8] abbreviates: Staphylococcus aureus, ATCC25923, S. aureus ATCC 25923, reference strain, read-out: MIC.
[9] abbreviates: S. aureus ATCC 25923, reference strain.

In brackets after ≈: the same amount, converted by molar mass. Where two headings read alike, the source gives them in different places.

Regarding `N=C(N)NCCc1ccc(OCOc2ccc(CCNC(=N)N)cc2)cc1` [compound 1, 1,1-bis(4-(2-guanidinoethyl)phenoxy)methane], the MIC came to 64 µg/mL (≈ 173 µM) in experiment [1] (setting [7]); 16 µg/mL (≈ 43.2 µM) in experiment [2] (setting [8]); 8 µg/mL (≈ 21.6 µM) in experiment [3]; 256 µg/mL (≈ 691 µM) in experiment [4]; 64 µg/mL (≈ 173 µM) in experiment [5].

As for `N=C(N)NCCc1ccc(OCCCOc2ccc(CCNC(=N)N)cc2)cc1` [compound 3, 1,3-bis(4-(2-guanidinoethyl)phenoxy)propane], the MIC in experiment [1] (setting [7]) worked out at 32 µg/mL (≈ 80.3 µM); in experiment [2] (setting [8]) it was 4 µg/mL (≈ 10 µM); in experiment [3], 2 µg/mL (≈ 5.02 µM); in experiment [4] it was 128 µg/mL (≈ 321 µM); in experiment [5], 64 µg/mL (≈ 161 µM).

`N=C(N)NCCc1ccc(OCCCCOc2ccc(CCNC(=N)N)cc2)cc1` [compound 4, 1,4-bis(4-(2-guanidinoethyl)phenoxy)butane]: the MIC in experiment [1] (setting [7]) was determined as 32 µg/mL (≈ 77.6 µM); in experiment [2] (setting [8]), 2 µg/mL (≈ 4.85 µM); in experiment [3], 1 µg/mL (≈ 2.42 µM); in experiment [4] it was 64 µg/mL (≈ 155 µM); in experiment [5] it was 64 µg/mL (≈ 155 µM).

As to `N=C(N)NCCc1ccc(OCCCCCCCOc2ccc(CCNC(=N)N)cc2)cc1` [compound 7, 1,7-bis(4-(2-guanidinoethyl)phenoxy)heptane], the MIC was found to be 4 µg/mL (≈ 8.8 µM) in experiment [1] (setting [7]); 1 µg/mL (≈ 2.2 µM) in experiment [2] (setting [8]); 1 µg/mL (≈ 2.2 µM) in experiment [3]; 8 µg/mL (≈ 17.6 µM) in experiment [4]; 16 µg/mL (≈ 35.2 µM) in experiment [5].

On to `N=C(N)NCCc1ccc(OCCCCCCCCCOc2ccc(CCNC(=N)N)cc2)cc1` [compound 9, 1,9-bis(4-(2-guanidinoethyl)phenoxy)nonane], for which, in experiment [6], the “antibacterial activity (in words)” value is reported as “very good activities on the 5 reference strains tested”. Moreover, the MIC in experiment [1] (setting [7]) is 1 µg/mL (≈ 2.07 µM); in experiment [2] (setting [8]), 0.25 µg/mL (≈ 0.518 µM); in experiment [3] it was 0.25 µg/mL (≈ 0.518 µM); in experiment [4], 1 to 2 µg/mL (≈ 2.07 to 4.14 µM); in experiment [5], 4 µg/mL (≈ 8.29 µM).

For `N=C(N)NCCc1ccc(OCCCCCCCCCCOc2ccc(CCNC(=N)N)cc2)cc1` [compound 10, 1,10-bis(4-(2-guanidinoethyl)phenoxy)decane], the MIC is 1 to 2 µg/mL (≈ 2.01 to 4.03 µM) in experiment [1] (setting [7]); under 1 µg/mL in experiment [2] (setting [8]); under 1 µg/mL in experiment [3]; under 1 µg/mL in experiment [4]; 8 µg/mL (≈ 16.1 µM) in experiment [5].

With `N=C(N)CCc1ccc(OCCCOc2ccc(CCC(=N)N)cc2)cc1` [compound 103, 1,3-bis(4-(2-(amidino)ethyl)phenoxy)propane], the MIC stood at 128 µg/mL (≈ 347 µM) in experiment [1] (setting [7]); 32 µg/mL (≈ 86.8 µM) in experiment [2] (setting [8]); 32 µg/mL (≈ 86.8 µM) in experiment [3]; 256 µg/mL (≈ 695 µM) in experiment [4]; 128 µg/mL (≈ 347 µM) in experiment [5].

Take `N=C(N)CCc1ccc(OCCCCOc2ccc(CCC(=N)N)cc2)cc1` [compound 104, 1,4-bis(4-(2-(amidino)ethyl)phenoxy)butane]: the MIC in experiment [1] (setting [7]) was found to be 64 µg/mL (≈ 167 µM); in experiment [2] (setting [8]), 2 µg/mL (≈ 5.23 µM); in experiment [3], 2 µg/mL (≈ 5.23 µM); in experiment [4], 256 µg/mL (≈ 669 µM); in experiment [5], 64 µg/mL (≈ 167 µM).

Regarding `N=C(N)CCc1ccc(OCCCCCCOc2ccc(CCC(=N)N)cc2)cc1` [compound 106, 1,6-bis(4-(2-(amidino)ethyl)phenoxy)hexane], the MIC in experiment [1] (setting [7]) was 32 µg/mL (≈ 77.9 µM); in experiment [2] (setting [9]), 2 (1) mg/L; in experiment [2] (setting [8]), 4 µg/mL (≈ 9.74 µM); in experiment [3], 2 µg/mL (≈ 4.87 µM); in experiment [4] it was 32 µg/mL (≈ 77.9 µM); in experiment [5] it was 32 µg/mL (≈ 77.9 µM).

Regarding `N=C(N)CCc1ccc(OCCCCCCCOc2ccc(CCC(=N)N)cc2)cc1` [compound 107, 1,7-bis(4-(2-(amidino)ethyl)phenoxy)heptane], the MIC in experiment [1] (setting [7]) is 64 µg/mL (≈ 151 µM); in experiment [4] it was 32 µg/mL (≈ 75.4 µM); in experiment [5] it was 64 µg/mL (≈ 151 µM).

Consider `N=C(N)CCc1ccc(OCCCCCCCCOc2ccc(CCC(=N)N)cc2)cc1` [compound 108, 1,8-bis(4-(2-(amidino)ethyl)phenoxy)octane], for which the MIC in experiment [1] (setting [7]) was 32 µg/mL (≈ 73 µM); in experiment [2] (setting [9]), 4 (1) mg/L; in experiment [2] (setting [8]), 2 µg/mL (≈ 4.56 µM); in experiment [4] it was 8 µg/mL (≈ 18.2 µM); in experiment [5], 16 µg/mL (≈ 36.5 µM).

With `N=C(N)CCc1ccc(OCCCCCCCCCCOc2ccc(CCC(=N)N)cc2)cc1` [compound 110, 1,10-bis(4-(2-(amidino)ethyl)phenoxy)decane], the MIC in experiment [1] (E. coli ATCC 25922, reference strain) was 8 (1) mg/L; in experiment [1] (setting [7]), 4 µg/mL (≈ 8.57 µM); in experiment [2] (setting [8]) it was 1 µg/mL (≈ 2.14 µM); in experiment [3] it was 1 µg/mL (≈ 2.14 µM); in experiment [4], 2 µg/mL (≈ 4.29 µM); in experiment [5] it was 16 µg/mL (≈ 34.3 µM).
